Measurements taken from patent US20040204577A1, “Novel peptide-forming enzyme gene” (Ajinomoto Co., Inc., priority 2003, published 2004).
Where a SMILES comes first, the peptide text is derived from it.

B1: Carboxypeptidase Y: known enzyme described in EP 278787A1, purified enzyme manufactured by Sigma (protein, UniProt P00729 112-532, looked up)
Carboxypeptidase Y: KIKDPKILGIDPNVTQYTGYLDVEDEDKHFFFWTFESRNDPAKDPVILWLNGGPGCSSLTGLFFELGPSSIGPDLKPIGNPYSWNSNATVIFLDQPVNVGFSYSGSSGVSNTVAAGKDVYNFLELFFDQFPEYVNKGQDFHIAGESYAGHYIPVFASEILSHKDRNFNLTSVLIGNGLTDPLTQYNYYEPMACGEGGEPSVLPSEECSAMEDSLERCLGLIESCYDSQSVWSCVPATIYCNNAQLAPYQRTGRNVYDIRKDCEGGNLCYPTLQDIDDYLNQDYVKEAVGAEVDHYESCNFDINRNFLFAGDWMKPYHTAVTDLLNQDLPILVYAGDKDFICNWLGNKAWTDVLPWKYDEEFASQKVRNWTASITDEVAGEVKSYKHFTYLRVFNGGHMVPFDVPENALSMVNEWIHGGFSL
B2: Papain: thiol endopeptidase described in EP 359399B1, purified enzyme manufactured by Sigma (protein, UniProt P00784 134-345, looked up)
Papain: IPEYVDWRQKGAVTPVKNQGSCGSCWAFSAVVTIEGIIKIRTGNLNEYSEQELLDCDRRSYGCNGGYPWSALQLVAQYGIHYRNTYPYEGVQRYCRSREKGPYAAKTDGVRQVQPYNEGALLYSIANQPVSVVLEAAGKDFQLYRGGIFVGPCGNKVDHAVAAVGYGPNYILIKNSWGTGWGENGYIRIKRGTGNSYGVCGLYTSSFYPVKN

Tests used:
[1] = system: microbial cells of Empedobacter brevis strain FERM BP-8113; assay: Production of peptide using microbial cells; assay type: cell-based; conditions: 1 mL cell suspension (100 g/L) + 1 mL buffer with 200 mM carboxy component (hydrochloride) and 400 mM amino acid; borate buffer pH 9.0, 10 mM EDTA; 18° C., 2 hours
Method: A 50 mL medium (pH 6.2) containing 5 grams (g) of glucose, 5 g of ammonium sulfate, 1 g of monopotassium phosphate, 3 g of dipotassium phosphate, 0.5 g of magnesium sulfate, 10 g of yeast extract and 10 g of peptone in 1 liter (L) was transferred to a 500 mL Sakaguchi flask and sterilized at 115° C. for 15 minutes. This medium was then inoculated with one loopful cells of Empedobacter brevis strain FERM BP-8113 (Depositary institution: the independent administrative corporation, National Institute of Advanced Industrial Science and Technology, International Patent Organism Depositary, Address of depositary institution: Chuo Dai-6, 1-1 Higashi 1-Chome, Tsukuba-shi, Ibaraki-ken, Japan, International deposit transfer date: Jul. 8, 2002) that had been cultured at 30° C. for 16 hours in the same medium, followed by shake culturing at 30° C. for 16 hours and 120 strokes/min.

[2] = system: peptide-forming enzyme (Mono S fraction enzyme); assay: Enzyme substrate specificity (1)-(10), (13), (14): peptide production; assay type: biochemical, Empedobacter brevis; conditions: pH 9.0, 25° C., 3 hours; for Produced peptide: L-amino acid ester 100 mM, peptide (amine component) 150 mM
Procedure, shortened: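 Mono S enzyme fraction in 100 mM borate buffer (pH 9.0) with 10 mM EDTA and 100 mM carboxy component (amino acid methyl esters or amides); amine components (L-glutamine, amino acids, amino acid amides or methylamine) at 150 mM, or 200 mM L-glutamine with varied esters. Reactions ran at 25° C for 2–3 hours; 0.1% Tween-80 added for Trp/Tyr-OMe.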

[3] = system: enzyme derived from Sphingobacterium sp. strain FERM BP-8124 (SP-Sepharose HP fraction enzyme); assay: Enzyme substrate specificity (11), (12): peptide production; assay type: biochemical; set-up: key to Produced peptide (Table 15-1) / Produced peptide (Table 15-3) / Produced peptide (Table 15-4): +: those peptides for which production was confirmed but which were unable to be quantified due to the absence of a standard; a trace amount; conditions: carboxy component 100 mM, 0.33 units enzyme, pH 9.0, 25° C., 1.5 hours; for Produced peptide (Table 15-1) / Produced peptide (Table 15-3) / Produced peptide (Table 15-4) / Produced peptide (Table 16, oligopeptide): amine component 150 mM; for Produced peptide (Table 15-4): amides and methylamine
Description: Substrate specificity was examined for enzyme derived from Sphingobacterium sp. strain FERM BP-8124 (Depositary institution: the independent administrative corporation, National Institute of Advanced Industrial Science and Technology, International Patent Organism Depositary, Address of depositary institution: Chuo Dai-6, 1-1 Higashi 1-Chome, Tsukuba-shi, Ibaraki-ken, Japan, International deposit date: […] The amounts of various peptides formed in this reaction are shown in Table 15. The “+” mark indicates those peptides for which production was confirmed but which were unable to be quantified due to the absence of a standard, while “tr” indicates a trace amount. Furthermore, Tween-80 was added to the reaction system to a final concentration of 0.1% in the case of using L-Tyr-OMe. In addition, hydrochloride salts were used for all carboxy components. Substrate specificity with respect to oligopeptide production was examined for enzyme derived from Sphingobacterium sp. strain FERM BP-8124 (Depositary institution: the independent administrative corporation, National Institute of Advanced Industrial Science and Technology, International Patent Organism Depositary, Address of depositary institution: Chuo Dai-6, 1-1 Higashi 1-Chome, Tsukuba-shi, Ibaraki-ken, Japan, International deposit date: […] The amounts of each oligopeptide formed in this reaction are shown in Table 16. Furthermore, hydrochloride salts were used for all the carboxy components.

[4] = Comparison of ability to catalyze peptide formation with known enzymes; assay type: biochemical; conditions: for L-Ala-L-Gln production rate: 100 mM L-alanine methyl ester hydrochloride, 200 mM L-glutamine, pH 9.0, 25° C., enzyme added 0.02-3.60 protein mg/ml as in Table 14; for Ratio of L-Ala-L-Gln production rate per enzyme unit weight: enzyme of present invention = 100.0
Description: The enzyme homogeneously purified in Example 3 was used as a source of the present enzyme of the present invention.

[5] = system: peptide-forming enzyme (Mono S fraction enzyme); assay: Enzyme inhibitors: effects on the production of L-alanyl-L-glutamine; assay type: biochemical, Empedobacter brevis
[6] = 100 mM L-alanine methyl ester hydrochloride, L-amino acid 150 mM
[7] = L-amino acid methyl ester hydrochloride 100 mM, L-amino acid 150 mM
[8] = L-amino acid amide hydrochloride as carboxy component 100 mM, L-amino acid 150 mM

Molecule | Formed peptide [1] [mM] | Formed peptide [2, 6] [mM] | Produced peptide (Table 15-1) [3] [mM] | Produced peptide (Table 15-3) [3] | further results
C[C@H](N)C(=O)N[C@@H](Cc1ccccc1)C(=O)O [L-Ala-L-Phe] | 62.4 | 74.4 | 69.5 | – | –
N[C@@H](CO)C(=O)N[C@@H](CO)C(=O)O [L-Ser-L-Ser] (H-Ser-Ser-OH) | 29.0 | – | – | 9.9 mM | Formed peptide [2, 7]: 38.0 mM
Chymopapain: thiol endopeptidase described in EP 359399B1, purified enzyme manufactured by Sigma | – | – | – | – | L-Ala-L-Gln production rate [4]: 0.0100 mM/min; Ratio of L-Ala-L-Gln production rate per enzyme unit weight [4]: 0.0013
N=C(N)Nc1ccc(C(=O)Oc2ccc([N+](=O)[O-])cc2)cc1 [p-Nitrophenyl-p′-guanidino benzoate, p-nitrophenyl-p′-guanidinobenzoate] | – | – | – | – | Relative activity of L-Ala-L-Gln production ([5]; inhibitor at 10 mM, borate buffer pH 9.0, 25° C., 5 minutes, 100 = absence of enzyme inhibitor): 0.1%; Inhibition of the enzyme (in words) ([5]; serine enzyme inhibitors at 10 mM): inhibited
CC(C)C[C@H](NC(=O)[C@@H](N)[C@@H](C)O)C(=O)O [L-Thr-L-Leu] (H-Thr-Leu-OH) | 23.0 | – | – | 15.3 mM | Formed peptide [2, 7]: 28.4 mM
CC[C@H](C)[C@H](N)C(=O)N[C@@H](CCSC)C(=O)O [L-Ile-L-Met] (H-Ile-Met-OH) | 8.3 | – | – | 5.1 mM | Formed peptide [2, 7]: 10.0 mM
C[C@H](N)C(=O)N[C@@H](CCCN=C(N)N)C(=O)O [L-Ala-L-Arg] (H-Ala-Arg-OH) | 72.1 | 88.0 | 72.2 | – | –
O=C(O)CI [Monoiodoacetate] | – | – | – | – | Relative activity of L-Ala-L-Gln production ([5]; pH 9): 101%
Ficin | – | – | – | – | L-Ala-L-Gln production rate [4]: 0.0096 mM/min; Ratio of L-Ala-L-Gln production rate per enzyme unit weight [4]: 0.0017
CSCC[C@H](NC(=O)[C@H](C)N)C(=O)O [L-Ala-L-Met] (H-Ala-Met-OH) | 68.3 | 83.3 | 86.9 | – | Formed peptide [2, 8]: 3.4 mM; Produced peptide (Table 15-4) [3]: tr
C[C@H](N)C(=O)N[C@@H](Cc1cnc[nH]1)C(=O)O [L-Ala-L-His] (H-Ala-His-OH) | 52.1 | 66.9 | 73.6 | – | Formed peptide [2, 8]: 3.9 mM; Produced peptide (Table 15-4) [3]: tr
CSCC[C@H](N)C(=O)N[C@@H](Cc1ccccc1)C(=O)O [L-Met-L-Phe] (H-Met-Phe-OH) | 28.5 | – | – | 8.9 mM | –
Bromelain | – | – | – | – | L-Ala-L-Gln production rate [4]: 0.0062 mM/min; Ratio of L-Ala-L-Gln production rate per enzyme unit weight [4]: 0.0010
C[C@H](N)C(=O)N[C@@H](CO)C(=O)O [L-Ala-L-Ser] (H-Ala-Ser-OH) | 51.3 | 62.5 | 43.8 | – | –
C[C@H](N)C(=O)N[C@@H](CC(N)=O)C(=O)O [L-Ala-L-Asn] (H-Ala-Asn-OH) | – | 65.5 | 52.3 | – | –
L-Thr-Gly-Gly | – | – | – | – | Produced peptide [2]: 83.0 mM; Produced peptide (Table 16, oligopeptide) [3]: 8.4 mM
CNC(=O)CN [Gly-methylamine] | – | – | – | – | Formed peptide ([2]; amino acid methyl ester hydrochloride 100 mM, methylamine 150 mM): 1.1 mM; Produced peptide (Table 15-4) [3]: 1.0 mM
C[C@H](NC(=O)[C@@H](N)[C@@H](C)O)C(=O)O [L-Thr-L-Ala] (H-Thr-Ala-OH) | – | – | – | 5.8 mM | Formed peptide [2, 7]: 9.4 mM
CSCC[C@H](NC(=O)[C@@H](N)C(C)C)C(=O)O [L-Val-L-Met] (H-Val-Met-OH) | 10.5 | – | – | 6.8 mM | Formed peptide [2, 7]: 10.3 mM
CC(C)C[C@H](NC(=O)[C@H](C)N)C(=O)O [L-Ala-L-Leu] (H-Ala-Leu-OH) | 38.2 | 45.3 | 33.0 | – | –
CC[C@H](C)[C@H](N)C(=O)N[C@@H](CCC(N)=O)C(=O)O [L-Ile-L-Gln] (H-Ile-Gln-OH) | – | – | – | – | Formed peptide ([2]; L-amino acid methyl ester hydrochloride 100 mM, 150 mM L-glutamine): 8.4 mM; Produced peptide (Table 15-2) ([3]; L-Gln 150 mM): 6.4 mM
L-Ala-L-Ala-L-Ala-L-Ala | – | – | – | – | Produced peptide [2]: 44.5 mM; Produced peptide (Table 16, oligopeptide) [3]: 30.1 mM
C[C@H](N)C(=O)N[C@@H](CCC(=O)O)C(=O)O [L-Ala-L-Glu] (H-Ala-Glu-OH) | – | 42.9 | 39.1 | – | –
C[C@H](N)C(=O)NCC(=O)O [L-Ala-Gly] (H-Ala-Gly-OH) | – | 13.7 | 11.1 | – | –
NCC(=O)N[C@@H](Cc1cnc[nH]1)C(=O)O [Gly-L-His] (H-Gly-His-OH) | 22.1 | – | – | 36.2 mM | Formed peptide [2, 7]: 31.6 mM
NCC(=O)N[C@@H](Cc1ccccc1)C(=O)O [Gly-L-Phe] (H-Gly-Phe-OH) | – | – | – | 20.0 mM | Formed peptide [2, 7]: 44.0 mM; Produced peptide (oligopeptide) ([2]; amount of enzyme 0.1 unit): 17.3 mM
NC(N)=NCCC[C@H](N)C(=O)N[C@@H](Cc1ccccc1)C(=O)O [L-Arg-L-Phe] | – | – | – | tr | Formed peptide [2, 7]: 1.9 mM
B1 | – | – | – | – | L-Ala-L-Gln production rate [4]: 0.0257 mM/min; Ratio of L-Ala-L-Gln production rate per enzyme unit weight [4]: 0.0191
B2 | – | – | – | – | L-Ala-L-Gln production rate [4]: 0.0106 mM/min; Ratio of L-Ala-L-Gln production rate per enzyme unit weight [4]: 0.0021
